90 compounds from PubChem BioAssay AID463203 (Broad Institute, 2010) can be followed below.

For this assay, the target named is Glycogen synthase kinase-3 alpha (Homo sapiens) (UniProt P49840). The assay is described as follows: concentration-response blocking of human GSK3A – biochemical, luminescence, cell-free homogeneous, retest, dose response (AID 463203). Particulars: GSK-3 alpha enzyme, ADP-Glo luminescence, 60 min.

SMILES strings stand for the structures. Calls of active or inactive are those of the source.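 Rule for the calls: active = more than half of replicate measurements showing over 20% loss of kinase signal relative to plate controls; inconclusive = some but at most half of replicates over 20% loss; inactive = no replicate over 20% signal loss.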

Sequence of Glycogen synthase kinase-3 alpha (Homo sapiens) (P49840 whole entry, looked up): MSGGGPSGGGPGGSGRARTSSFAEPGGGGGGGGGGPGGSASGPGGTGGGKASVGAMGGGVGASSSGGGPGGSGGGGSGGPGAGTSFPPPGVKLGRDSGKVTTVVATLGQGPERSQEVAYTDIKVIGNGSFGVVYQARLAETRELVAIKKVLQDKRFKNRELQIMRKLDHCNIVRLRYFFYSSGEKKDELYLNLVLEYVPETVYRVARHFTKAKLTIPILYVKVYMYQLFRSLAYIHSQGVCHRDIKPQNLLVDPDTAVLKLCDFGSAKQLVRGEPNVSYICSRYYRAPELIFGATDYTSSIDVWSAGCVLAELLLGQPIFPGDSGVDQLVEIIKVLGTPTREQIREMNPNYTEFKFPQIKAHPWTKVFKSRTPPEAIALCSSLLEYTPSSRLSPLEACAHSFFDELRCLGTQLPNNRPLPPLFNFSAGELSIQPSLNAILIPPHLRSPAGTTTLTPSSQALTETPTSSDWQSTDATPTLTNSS

As for `Cc1ccc(C(=O)c2c(NC(=O)CSc3nnc(N)s3)sc3c2CCCC3)cc1`, the AC50 is > 30 µM (inactive).

With `COCCNc1nc(N)c([N+](=O)[O-])c(NCc2ccccc2)n1`, the AC50 was 7.15 µM.

With `Cc1cc(NC(=O)c2sc(Nc3ccc(F)cc3)nc2N)no1`, the AC50 was 8.04 µM. With `Cc1ccc(C(=O)N2NC(c3ccc(F)cc3)C3C(=O)N(c4ccc(C)c(C)c4)C(=O)C32)cc1` (stereo not given) the figure was > 30 µM (inactive). With `O=C1c2cnc3nc(SCc4ccc(Cl)cc4)nn3c2CC2c3ccccc3CCN12` (stereo not given) the figure was > 30 µM (inactive); with `CCCCC(NS(=O)(=O)c1ccc(OC)cc1)C(=O)O` (stereo not given), > 30 µM (inactive). As for `Cc1c(O)ccc2c3c(c(=O)oc12)CCCC3`, the AC50 is 6.63 µM. In the case of `CC1(C)Oc2ccc3ccc(=O)oc3c2-c2cnoc21`, the AC50 is > 30 µM (inactive). For the compound `CCc1c(C)c(C#N)c2nc3ccccc3n2c1NCC1CCCO1` (stereo not given), the half-maximal activity concentration (AC50) was 12.6 µM. For `CSc1ccc(/C=C2\NC(=O)NC2=O)cc1` the value was 27.9 µM; for `COc1ccc(NC(=O)c2nnn(Cc3cccc(F)c3)c2N)c(OC)c1`, > 30 µM (inactive); for `CCN(CC)CCNC(=O)c1ccc(NC(=O)C2CCN(c3ncnc4sc(C)c(C)c34)CC2)cc1`, 22.8 µM. Turning to `COc1cc(/C=N/NC(=O)c2ccc(COc3ccccc3Cl)o2)cc(Br)c1O`, the AC50 was > 30 µM (inactive). Turning to `COCC(O)CSc1nc(C)[nH]c1[N+](=O)[O-]` (stereo not given), the AC50 was > 30 µM (inactive). With `CCC(CO)Nc1ncc([N+](=O)[O-])cc1C#N` (stereo not given) the figure was > 30 µM (inactive); with `CCCc1nnc(NC(=O)CCN2C(=O)c3ccccc3C2=O)s1`, > 30 µM (inactive); with `CCCc1cc(=O)[nH]c(SCC(=O)Nc2sc3c(c2C(N)=O)CCCC3)n1`, > 30 µM (inactive). Take `O=c1c(OC2OC(CO)C(O)C(O)C2O)c(-c2ccc(O)c(O)c2)oc2cc(O)cc(O)c12` (stereo not given): the AC50 is > 30 µM (inactive). For `COc1ccc(NC(=O)CSc2nc3[nH]ncc3c(=O)n2-c2ccccc2OC)cc1OC` the value was > 30 µM (inactive).

`NC(=O)c1cc([N+](=O)[O-])c(Cl)cc1NCc1cccnc1`: the half-maximal activity concentration (AC50) was 4.43 µM. `CCn1nc(-c2ccccc2)nc2c(=O)n(C)c(=O)nc1-2`: the AC50 is 27.3 µM. For `CCCc1c(C(=O)N/N=C/C(C)=C/c2ccco2)nnn1-c1nonc1N` the value was > 30 µM (inactive); for `O=C(CSc1cccc2cccnc12)N/N=C/c1ccc(O)cc1`, > 30 µM (inactive); for `Cc1ccc(CSc2ccc3nnc(-c4cccnc4)n3n2)cc1`, > 30 µM (inactive). For `CC1CCN(Cc2c(C(=O)N/N=C/c3ccc(C(C)(C)C)cc3)nnn2-c2nonc2N)CC1` the value was > 30 µM (inactive).

Regarding `CCCOc1ccccc1NC(=O)Nc1ccccc1Cl`, the AC50 is > 30 µM (inactive). For `Fc1cccc(/C=N/Nc2cc(N3CCOCC3)ncn2)c1` the value was > 30 µM (inactive); for `CCOC(=O)c1cnc2c(Cl)c(Cl)ccc2c1N1CCN(C)CC1`, > 30 µM (inactive); for `N#CC1=C2SCN(Cc3ccccc3)CN2C(=O)CC1c1ccccc1F` (stereo not given), > 30 µM (inactive). Consider `CCOc1ccc(-c2c(C(=O)N/N=C(\C)c3cccnc3)nnn2-c2nonc2N)cc1`, for which the AC50 was > 30 µM (inactive). `O=c1c2ccccc2oc2cc(NCCCn3ccnc3)ccc12`: the AC50 was > 30 µM (inactive).

On to `Cc1cnn(-c2cc(N/N=C/c3ccc(F)cc3)ncn2)c1`, for which the AC50 was > 30 µM (inactive).

As to `Cc1nc2c(C)cccn2c1/C(O)=C1\C(=O)C(=O)N(CCN2CCOCC2)C1c1cccs1` (stereo not given), the AC50 is > 30 µM (inactive).

Take `C/C(=N\NC(=O)c1nnn(-c2nonc2N)c1-c1cccs1)c1cccc(O)c1`: the AC50 was 1.42 µM. Take `COc1cccc(-c2[nH]nc3c2C(c2ccc(C)o2)C(C#N)=C(N)O3)c1` (stereo not given): the AC50 was > 30 µM (inactive). In the case of `COc1ccc2[nH]c(-c3ccc(C)cc3)cc(=O)c2c1`, the AC50 was > 30 µM (inactive). For the compound `O=C1N/C(=N\S(=O)(=O)Cc2ccccc2)S/C1=C/c1cccc([N+](=O)[O-])c1`, the AC50 was > 30 µM (inactive). With `Cc1cc(N2CCN(c3ccccc3)CC2)n2c(n1)nc1ccccc12`, the AC50 was 4.33 µM. `COc1ccc(CCNC(=O)CSc2nc3[nH]ncc3c(=O)n2-c2cccc(C(F)(F)F)c2)cc1OC`: the AC50 was > 30 µM (inactive).

In the case of `O=Nc1c(-c2c(O)[nH]c3cc(Br)ccc23)[nH]c2ccccc12`, the half-maximal activity concentration (AC50) was < 0.0135 µM.

Take `COc1ccc(C2=Nn3c(nnc3-c3cccnc3)SC2)cc1OC`: the AC50 was > 30 µM (inactive). For `NC(=O)c1c(NC(=O)CN2C(=O)NC(Cc3ccccc3)C2=O)sc2c1CCC2` (stereo not given) the value was 20.3 µM; for `COc1ccccc1N1CC(C(=O)Nc2nc(C)cs2)CC1=O` (stereo not given), > 30 µM (inactive).

`Cn1cnnc1SCC(=O)Nc1ncc([N+](=O)[O-])s1`: the AC50 was > 30 µM (inactive). For `COc1ccc(C(=O)NCC(=O)N/N=C/C(C)=C/c2ccccc2)cc1OC` the value was > 30 µM (inactive); for `O=C(CSCc1ccc([N+](=O)[O-])cc1)N/N=C/c1cccnc1`, > 30 µM (inactive). `Nc1nc(N)nc(-c2cc(O)ccc2O)n1`: the concentration at half-maximal activity (AC50) is 11.8 µM. For `N#C/C(=N\Nc1cccc(F)c1)C(=O)C1CC1` the value was > 30 µM (inactive); for `Cc1ccc(-c2cc(-c3n[nH]c(=S)o3)c3ccccc3n2)cc1`, 27.7 µM.

Consider `CC(=O)c1cccc(NC(=S)NC(=O)CC(C)C)c1`, for which the AC50 is > 30 µM (inactive). With `COC(=O)C1=C(C)Nc2ncnn2C1c1ccco1` (stereo not given), the AC50 is > 30 µM (inactive). `Cc1ccc(-c2nnc3n2N=C(c2ccccc2Br)CS3)cc1`: the AC50 was > 30 µM (inactive).

For the compound `CCN1C(=O)/C(=C/c2cccs2)N(C)C1=S`, the AC50 was > 30 µM (inactive). For `COc1ccc(N=Nc2c(C)n[nH]c2C)cc1` the value was > 30 µM (inactive). Take `Oc1ccc(-c2nc3ncccn3c2Nc2ccc3c(c2)OCCO3)cc1`: the AC50 was > 30 µM (inactive).

Turning to `CCOC(=O)c1nnn(-c2nonc2-n2cccc2)c1C`, the AC50 was > 30 µM (inactive).

As to `Cc1cc(C(=O)N/N=C/c2cc(N=Nc3ccccc3)ccc2O)n[nH]1`, the AC50 is > 30 µM (inactive). As for `COC(=O)c1c(NC(=O)CN2C(=O)NC3(CCc4ccccc4C3)C2=O)sc2c1CCCCC2` (stereo not given), the AC50 is > 30 µM (inactive). Regarding `CCN(C(=O)CN1CCCC(C)C1)c1c(N)n(Cc2ccccc2)c(=O)[nH]c1=O` (stereo not given), the AC50 is > 30 µM (inactive). For `CCOC(=O)N1CCc2c(sc3nc(SC(C)C)n(N)c(=O)c23)C1` the value was > 30 µM (inactive); for `CCCOc1ccc(-c2nnc(N)s2)cc1`, > 30 µM (inactive); for `O=C(O)Cn1c(=O)c2c3c(sc2n(Cc2ccc(F)cc2)c1=O)CCCC3`, > 30 µM (inactive). For `COc1cc(NC(=O)c2cc([N+](=O)[O-])ccc2NC(=O)CNC2CCCCC2C)cc(OC)c1` (stereo not given) the value was > 30 µM (inactive); for `COc1ccc(/C=C(/NC(=O)c2ccc([N+](=O)[O-])cc2)C(=O)NC(C)(C)C)cc1`, > 30 µM (inactive); for `c1ccc(CN2CCN(CCCNc3ccc4nnc(-c5ccccc5)n4n3)CC2)cc1`, > 30 µM (inactive). With `Nc1nonc1-c1nc2ccccc2n1CCC(=O)O` the figure was 16.4 µM; with `CCn1c(C)nc2cc(-c3nnc(-c4c(-c5ccccc5)noc4C)o3)ccc21`, > 30 µM (inactive).

In the case of `O=C(O)c1cccc2c1C(=O)c1cc(Br)ccc1S2(=O)=O`, the AC50 is > 30 µM (inactive). For `COc1ccc(NC(=O)Nc2ccc(F)cc2)c(C)c1` the value was > 30 µM (inactive). With `Nc1cc(C(=O)O)c(N)c2c1C(=O)c1ccccc1C2=O` the figure was 7.46 µM; with `COc1ccc(CNc2cc(NCCCO)c([N+](=O)[O-])c3nonc23)cc1`, 13.3 µM; with `COc1ccc(-c2noc(CSc3nc(-c4ccccc4)cc(=O)[nH]3)n2)cc1OC`, > 30 µM (inactive). Take `CCn1c2ccccc2c2nc3ccccc3nc21`: the AC50 was > 30 µM (inactive).

Consider `COc1cc(C(=O)NNC(=O)C2CSC3(C)CCC(=O)N23)cc(OC)c1OC` (stereo not given), for which the AC50 was > 30 µM (inactive). For `C=CCn1c(O)c(C(C)=NCCCn2ccnc2)c(=O)[nH]c1=O` the value was 19.4 µM; for `c1ccc(N2CCN(c3cnc4ccccc4n3)CC2)cc1`, > 30 µM (inactive); for `CCN1CCN(c2nc(Nc3cccc(OC)c3)nc(N)c2[N+](=O)[O-])CC1`, > 30 µM (inactive).

In the case of `C[C@@H]1O[C@@H](O[C@H]2[C@H](O)[C@@H](O)[C@H](Oc3c(-c4ccc(O)c(O)c4)oc4cc(O)cc(O)c4c3=O)O[C@@H]2CO)[C@H](O)[C@H](O)[C@H]1O`, the AC50 is > 30 µM (inactive). Consider `CNc1nc(Cl)c(SC)c(NC2CCCCC2)n1`, for which the AC50 was > 30 µM (inactive).

Take `CC1CCN(CCCNc2cc(NCCO)c([N+](=O)[O-])c3nonc23)CC1`: the AC50 is > 30 µM (inactive). On to `c1ccc2[nH]c(C3CC3)nc2c1`, for which the AC50 is > 30 µM (inactive). As to `CC1CCCCC12NC(=O)N(CC(=O)Nc1sccc1C(N)=O)C2=O` (stereo not given), the AC50 was > 30 µM (inactive). On to `Cn1c2ccc(F)cc2c2nc3ccccc3nc21`, for which the AC50 is > 30 µM (inactive). For `CCCCOC(=O)CNc1n[nH]c(=S)[nH]c1=O` the value was > 30 µM (inactive); for `O=C(CSc1ccccn1)Nc1ccccc1F`, > 30 µM (inactive).

Turning to `COC(=O)c1c(NC(=O)COC(=O)c2ccccn2)sc(C)c1C`, the AC50 was > 30 µM (inactive).

With `N#C/C(C(N)=O)=C1/CCc2ccccc2N1`, the concentration at half-maximal activity (AC50) is 12.5 µM.

Consider `O=C1c2cnc3nc(SCc4ccccc4)nn3c2CC2c3ccccc3CCN12` (stereo not given), for which the AC50 is > 30 µM (inactive). As for `Cc1ccc(NC(=O)c2cc(-n3cnnc3)ccc2Cl)c(C)c1`, the AC50 was > 30 µM (inactive). For `CN(c1ccccc1)c1nc(N)c([N+](=O)[O-])c(Nc2ccccc2F)n1` the value was > 30 µM (inactive).
